Measured values from patent publication US20100173930A1, “Certain Chemical Entities, Compositions and Methods” (priority 2006, published 2010).

system: SKM MYOFIBRIL; assay: SKM myofibril AC1.4 (ATPase, PK/LDH coupled enzyme system); assay type: biochemical; conditions: screen at pCa=6.5; also: unit not given here

| Structure (SMILES) | SKM MYOFIBRIL AC1.4 (median) |
| --- | --- |
| Cc1ccn2c(NCc3ccc(F)cc3F)c(-c3ccccc3O)nc2c1 [2-(3-{[(2,4-difluorophenyl)methyl]amino}-7-methyl-4-hydroimidazo[1,2-a]pyridin-2-yl)phenol] | 0.959 |
| Cc1ccn2c(NCc3ccccc3Cl)c(-c3ccccc3O)nc2c1 [2-(3-{[(2-chlorophenyl)methyl]amino}-7-methyl-4-hydroimidazo[1,2-a]pyridin-2-yl)phenol] | 1.165 |
| Cc1ccn2c(NCc3ccccc3F)c(-c3ccccc3O)nc2c1 [2-(3-{[(2-fluorophenyl)methyl]amino}-7-methyl-4-hydroimidazo[1,2-a]pyridin-2-yl)phenol] | 1.0036 |
| COc1ccccc1CNc1c(-c2ccccc2O)nc2cc(C)ccn12 [2-(3-{[(2-methoxyphenyl)methyl]amino}-7-methyl-4-hydroimidazo[1,2-a]pyridin-2-yl)phenol] | 1.9683 |
| Oc1ccccc1-c1nc2ccccn2c1NCc1cccc(Cl)c1 [2-(3-{[(3-chlorophenyl)methyl]amino}-4-hydroimidazo[1,2-a]pyridin-2-yl)phenol] | 4.2459 |
| Cc1cn2c(NCc3cccc(Cl)c3)c(-c3ccccc3O)nc2c(C)n1 [2-(3-{[(3-chlorophenyl)methyl]amino}-6,8-dimethyl-4-hydroimidazo[1,2-a]pyrazin-2-yl)phenol] | 6.4593 |
| CC(C)(O)c1ccc2nc(-c3ccccc3O)c(NCc3cccc(Cl)c3)n2c1 [2-(3-{[(3-chlorophenyl)methyl]amino}-6-(1-hydroxy-isopropyl)-4-hydroimidazo[1,2-a]pyridin-2-yl)phenol] | 2.0993 |
| OCc1ccc2nc(-c3ccccc3O)c(NCc3cccc(Cl)c3)n2c1 [2-(3-{[(3-chlorophenyl)methyl]amino}-6-(hydroxymethyl)-4-hydroimidazo[1,2-a]pyridin-2-yl)phenol] | 1.6756 |
| Cc1cn2c(NCc3cccc(Cl)c3)c(-c3ccccc3O)nc2cn1 [2-(3-{[(3-chlorophenyl)methyl]amino}-6-methyl-4-hydroimidazo[1,2-a]pyrazin-2-yl)phenol] | 3.6886 |
| Cc1ccc2nc(-c3ccccc3O)c(NCc3cccc(Cl)c3)n2c1 [2-(3-{[(3-chlorophenyl)methyl]amino}-6-methyl-4-hydroimidazo[1,2-a]pyridin-2-yl)phenol] | 1.1197 |
| Cc1ccc2nc(-c3ccccc3O)c(NCc3cccc(Cl)c3)n2n1 [2-(3-{[(3-chlorophenyl)methyl]amino}-6-methyl-4-hydroimidazo[1,2-e]pyridazin-2-yl)phenol] | 3.5753 |
| CC(CO)c1ccn2c(NCc3cccc(Cl)c3)c(-c3ccccc3O)nc2c1 (stereo not shown) [2-(3-{[(3-chlorophenyl)methyl]amino}-7-(1-hydroxy-isopropyl)-4-hydroimidazo[1,2-a]pyridin-2-yl)phenol] | 1.2697 |
| OCc1ccn2c(NCc3cccc(Cl)c3)c(-c3ccccc3O)nc2c1 [2-(3-{[(3-chlorophenyl)methyl]amino}-7-(hydroxymethyl)-4-hydroimidazo[1,2-a]pyridin-2-yl)phenol] | 1.9956 |
| CCc1ccn2c(NCc3cccc(Cl)c3)c(-c3ccccc3O)nc2c1 [2-(3-{[(3-chlorophenyl)methyl]amino}-7-ethyl-4-hydroimidazo[1,2-a]pyridin-2-yl)phenol] | 0.9168 |
| COc1ccc(-c2nc3cc(C)ccn3c2NCc2cccc(Cl)c2)c(O)c1 [2-(3-{[(3-chlorophenyl)methyl]amino}-7-methyl(4-hydroimidazo[1,2-a]pyridin-2-yl))-5-methoxyphenol] | 27.0817 |
| Cc1ccn2c(NCc3cccc(Cl)c3)c(-c3ccccc3O)nc2c1 [2-(3-{[(3-chlorophenyl)methyl]amino}-7-methyl-4-hydroimidazo[1,2-a]pyridin-2-yl)phenol] | 0.9522 |
| Cc1ccn2c(NCc3cccc(Cl)c3)c(-c3ncccc3O)nc2c1 [2-(3-{[(3-chlorophenyl)methyl]amino}-7-methyl-4-hydroimidazo[1,2-a]pyridin-2-yl)pyridin-3-ol] | 36.9847 |
| Cc1ccn2c(NCc3cccc(Cl)c3)c(-c3ccccc3O)nc2n1 [2-(3-{[(3-chlorophenyl)methyl]amino}-7-methyl-4-hydroimidazo[1,2-a]pyrimidin-2-yl)phenol] | 7.147 |
| Cc1ccn2c(NCc3cccc(F)c3)c(-c3ccccc3O)nc2c1 [2-(3-{[(3-fluorophenyl)methyl]amino}-7-methyl-4-hydroimidazo[1,2-a]pyridin-2-yl)phenol] | 1.4096 |
| COc1cccc(CNc2c(-c3ccccc3O)nc3cc(C)ccn23)c1 [2-(3-{[(3-methoxyphenyl)methyl]amino}-7-methyl-4-hydroimidazo[1,2-a]pyridin-2-yl)phenol] | 10.2909 |
| Cc1ccn2c(NCc3ccc(Cl)cc3)c(-c3ccccc3O)nc2c1 [2-(3-{[(4-chlorophenyl)methyl]amino}-7-methyl-4-hydroimidazo[1,2-a]pyridin-2-yl)phenol] | 3.3207 |
| Oc1ccccc1-c1nc2cnccn2c1NCc1ccc(F)cc1 [2-(3-{[(4-fluorophenyl)methyl]amino}-4-hydroimidazo[1,2-a]pyrazin-2-yl)phenol] | 4.6013 |

| Structure (SMILES) | SKM MYOFIBRIL AC1.4 (median) |
| --- | --- |
| Oc1ccccc1-c1nc2ccccn2c1NCc1ccc(F)cc1 [2-(3-{[(4-fluorophenyl)methyl]amino}-4-hydroimidazo[1,2-a]pyridin-2-yl)phenol] | 3.2661 |
| CC(C)(O)c1ccc2nc(-c3ccccc3O)c(NCc3ccc(F)cc3)n2c1 [2-(3-{[(4-fluorophenyl)methyl]amino}-6-(1-hydroxy-isopropyl)-4-hydroimidazo[1,2-a]pyridin-2-yl)phenol] | 4.1299 |
| OCc1ccc2nc(-c3ccccc3O)c(NCc3ccc(F)cc3)n2c1 [2-(3-{[(4-fluorophenyl)methyl]amino}-6-(hydroxymethyl)-4-hydroimidazo[1,2-a]pyridin-2-yl)phenol] | 4.3564 |
| Cc1ccn2c(NCc3ccc(F)cc3)c(-c3ccccc3O)nc2c1 [2-(3-{[(4-fluorophenyl)methyl]amino}-7-methyl-4-hydroimidazo[1,2-a]pyridin-2-yl)phenol] | 1.1306 |
| Cc1ccn2c(NCc3ccc(F)cn3)c(-c3ccccc3O)nc2c1 [2-(3-{[(5-fluoro(2-pyridyl))methyl]amino}-7-methyl-4-hydroimidazo[1,2-a]pyridin-2-yl)phenol] | 7.3934 |
| Oc1ccccc1-c1nc2cccc(Br)n2c1NCc1cccc(Cl)c1 [2-(5-bromo-3-{[(3-chlorophenyl)methyl]amino}-4-hydroimidazo[1,2-a]pyridin-2-yl)phenol] | 12.5914 |
| NCc1ccc2nc(-c3ccccc3O)c(NCc3cccc(Cl)c3)n2c1 [2-(6-(aminomethyl)-3-{[(3-chlorophenyl)methyl]amino}-4-hydroimidazo[1,2-a]pyridin-2-yl)phenol] | 0.2349 |
| Oc1ccccc1-c1nc2ccc(Br)cn2c1NCc1cccc(Cl)c1 [2-(6-bromo-3-{[(3-chlorophenyl)methyl]amino}-4-hydroimidazo[1,2-a]pyridin-2-yl)phenol] | 5.3855 |
| Oc1ccccc1-c1nc2ccc(Br)cn2c1NCc1ccc(F)cc1 [2-(6-bromo-3-{[(4-fluorophenyl)methyl]amino}-4-hydroimidazo[1,2-a]pyridin-2-yl)phenol] | 5.6018 |
| Oc1ccccc1-c1nc2ccc(Cl)cn2c1NCc1ccc(F)cc1 [2-(6-chloro-3-{[(4-fluorophenyl)methyl]amino}-4-hydroimidazo[1,2-a]pyridin-2-yl)phenol] | 3.5116 |
| Oc1ccccc1-c1nc2cc(Br)ccn2c1NCc1cccc(Cl)c1 [2-(7-bromo-3-{[(3-chlorophenyl)methyl]amino}-4-hydroimidazo[1,2-a]pyridin-2-yl)phenol] | 8.3071 |
| CCc1ccn2c(NCc3ccc(F)cc3)c(-c3ccccc3O)nc2c1 [2-(7-ethyl-3-{[(4-fluorophenyl)methyl]amino}-4-hydroimidazo[1,2-a]pyridin-2-yl)phenol] | 0.9459 |
| Cc1ccn2c(NCc3ccccc3C)c(-c3ccccc3O)nc2c1 [2-(7-methyl-3-{[(2-methylphenyl)methyl]amino}-4-hydroimidazo[1,2-a]pyridin-2-yl)phenol] | 0.9648 |
| Cc1cccc(CNc2c(-c3ccccc3O)nc3cc(C)ccn23)c1 [2-(7-methyl-3-{[(3-methylphenyl)methyl]amino}-4-hydroimidazo[1,2-a]pyridin-2-yl)phenol] | 0.9541 |
| Cc1ccc(CNc2c(-c3ccccc3O)nc3cc(C)ccn23)cc1 [2-(7-methyl-3-{[(4-methylphenyl)methyl]amino}-4-hydroimidazo[1,2-a]pyridin-2-yl)phenol] | 16.3079 |
| Oc1ccccc1-c1nc2c(Br)cccn2c1NCc1cccc(Cl)c1 [2-(8-bromo-3-{[(3-chlorophenyl)methyl]amino}-4-hydroimidazo[1,2-a]pyridin-2-yl)phenol] | 13.2238 |
| Oc1ccccc1-c1nc2ccccn2c1NC1CCCCC1 [2-[3-(cyclohexylamino)-4-hydroimidazo[1,2-a]pyridin-2-yl]phenol] | 8.1939 |
| Oc1ccccc1-c1nc2ccccn2c1NC1CCCC1 [2-[3-(cyclopentylamino)-4-hydroimidazo[1,2-a]pyridin-2-yl]phenol] | 11.2917 |
| Cc1ccn2c(NC3CCCC3)c(-c3ccccc3O)nc2c1 [2-[3-(cyclopentylamino)-7-methyl-4-hydroimidazo[1,2-a]pyridin-2-yl]phenol] | 11.1785 |
| Cc1cccn2c(NC3CCCC3)c(-c3ccccc3O)nc12 [2-[3-(cyclopentylamino)-8-methyl-4-hydroimidazo[1,2-a]pyridin-2-yl]phenol] | 11.3023 |
| CN(C)CCNCc1ccc2nc(-c3ccccc3O)c(NCc3cccc(Cl)c3)n2c1 [2-[6-({[2-(dimethylamino)ethyl]amino}methyl)-3-{[(3-chlorophenyl)methyl]amino}-4-hydroimidazo[1,2-a]pyridin-2-yl]phenol] | 6.9925 |
